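GI50 = concentration required for 50% inhibition of growth. The concentration for full growth arrest is given as TGI.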
Legend:
Experiment in all cases: NCI-60 cell line screen, 384-well format
786-0 renal = tested on: 786-0 renal
A498 renal = tested on: A498 renal
A549 NSCLC = tested on: A549 NSCLC
ACHN renal = tested on: ACHN renal
BT-549 breast = tested on: BT-549 breast
CAKI-1 renal = tested on: CAKI-1 renal
CCRF-CEM leukemia = tested on: CCRF-CEM leukemia
COLO 205 colon = tested on: COLO 205 colon
DU-145 prostate = tested on: DU-145 prostate
EKVX NSCLC = tested on: EKVX NSCLC
HCC-2998 colon = tested on: HCC-2998 colon
HCT-15 colon = tested on: HCT-15 colon
HL-60(TB) leukemia = tested on: HL-60(TB) leukemia
HOP-62 NSCLC = tested on: HOP-62 NSCLC
HOP-92 NSCLC = tested on: HOP-92 NSCLC
HS 578T breast = tested on: HS 578T breast
HT29 colon = tested on: HT29 colon
IGROV1 ovarian = tested on: IGROV1 ovarian
K-562 leukemia = tested on: K-562 leukemia
KM12 colon = tested on: KM12 colon
LOX IMVI melanoma = tested on: LOX IMVI melanoma
M14 melanoma = tested on: M14 melanoma
MALME-3M melanoma = tested on: MALME-3M melanoma
MCF7 breast = tested on: MCF7 breast
MDA-MB-231 breast = tested on: MDA-MB-231 breast
MDA-MB-435 melanoma = tested on: MDA-MB-435 melanoma
MDA-MB-468 breast = tested on: MDA-MB-468 breast
MOLT-4 leukemia = tested on: MOLT-4 leukemia
NCI-H226 lung = tested on: NCI-H226 lung
NCI-H23 lung = tested on: NCI-H23 lung
NCI-H322M lung = tested on: NCI-H322M lung
NCI-H460 NSCLC = tested on: NCI-H460 NSCLC
NCI-H522 lung = tested on: NCI-H522 lung
NCI/ADR-RES ovarian = tested on: NCI/ADR-RES ovarian
OVCAR-3 ovarian = tested on: OVCAR-3 ovarian
OVCAR-4 ovarian = tested on: OVCAR-4 ovarian
OVCAR-5 ovarian = tested on: OVCAR-5 ovarian
OVCAR-8 ovarian = tested on: OVCAR-8 ovarian
PC-3 prostate = tested on: PC-3 prostate
RPMI-8226 leukemia = tested on: RPMI-8226 leukemia
RXF 393 renal = tested on: RXF 393 renal
SF-268 CNS = tested on: SF-268 CNS
SF-295 CNS = tested on: SF-295 CNS
SF-539 CNS = tested on: SF-539 CNS
SK-MEL-28 melanoma = tested on: SK-MEL-28 melanoma
SK-MEL-5 melanoma = tested on: SK-MEL-5 melanoma
SK-OV-3 ovarian = tested on: SK-OV-3 ovarian
SN12C renal = tested on: SN12C renal
SNB-19 CNS = tested on: SNB-19 CNS
SNB-75 CNS = tested on: SNB-75 CNS
SR leukemia = tested on: SR leukemia
SW-620 colon = tested on: SW-620 colon
T-47D breast = tested on: T-47D breast
TK-10 renal = tested on: TK-10 renal
U251 glioblastoma = tested on: U251 glioblastoma
UACC-257 melanoma = tested on: UACC-257 melanoma
UACC-62 melanoma = tested on: UACC-62 melanoma
UO-31 renal = tested on: UO-31 renal

## CC(CN(C)C)S(=O)(=O)c1ccc(-c2cnc(N)c(C(=O)Nc3ccccc3)n2)cc1 (stereo unspecified)
786-0 renal
  GI50: 0.753 µM
  TGI: 2.66 µM
A498 renal
  GI50: 0.343 µM
  TGI: 1.35 µM
A549 NSCLC
  GI50: 2.17 µM
  TGI: 27.5 µM
ACHN renal
  GI50: 0.979 µM
  TGI: 7.41 µM
BT-549 breast
  GI50: 0.556 µM
  TGI: 2.69 µM
CAKI-1 renal
  GI50: 2.77 µM
  TGI: 14.7 µM
CCRF-CEM leukemia
  GI50: 0.519 µM
  TGI: 1.66 µM
COLO 205 colon
  GI50: 2.25 µM
  TGI: 5.9 µM
DU-145 prostate
  GI50: 2.9 µM
  TGI: 13.4 µM
EKVX NSCLC
  GI50: 8.14 µM
  TGI: 31.3 µM
HCC-2998 colon
  GI50: 0.314 µM
  TGI: 0.937 µM
HCT-15 colon
  GI50: 1.03 µM
  TGI: 2.43 µM
HL-60(TB) leukemia
  GI50: 1.49 µM
  TGI: 2.83 µM
HOP-62 NSCLC
  GI50: 2.3 µM
  TGI: 14.1 µM
HOP-92 NSCLC
  GI50: 1.4 µM
  TGI: 10.8 µM
HS 578T breast
  GI50: 0.837 µM
  TGI: 3.17 µM
HT29 colon
  GI50: 1.61 µM
  TGI: 3.69 µM
IGROV1 ovarian
  GI50: 1.99 µM
  TGI: 5.27 µM
K-562 leukemia
  GI50: 1.89 µM
  TGI: 3.53 µM
KM12 colon
  GI50: 2.79 µM
  TGI: 12.3 µM
LOX IMVI melanoma
  GI50: 2.48 µM
  TGI: 11.5 µM
M14 melanoma
  GI50: 1.73 µM
  TGI: 10.7 µM
MALME-3M melanoma
  GI50: 1.81 µM
  TGI: 5.29 µM
MCF7 breast
  GI50: 0.844 µM
  TGI: 13.4 µM
MDA-MB-231 breast
  GI50: 12.9 µM
  TGI: 36.3 µM
MDA-MB-435 melanoma
  GI50: 3.82 µM
  TGI: 16.1 µM
MDA-MB-468 breast
  GI50: 0.412 µM
  TGI: 1.34 µM
MOLT-4 leukemia
  GI50: 0.515 µM
  TGI: 1.62 µM
NCI-H226 lung
  GI50: 3.25 µM
  TGI: 12.9 µM
NCI-H23 lung
  GI50: 1.07 µM
  TGI: 4.51 µM
NCI-H322M lung
  GI50: 1.1 µM
  TGI: 15.5 µM
NCI-H460 NSCLC
  GI50: 0.696 µM
  TGI: 6.72 µM
NCI-H522 lung
  GI50: 10.3 µM
  TGI: 22.3 µM
NCI/ADR-RES ovarian
  GI50: 3.11 µM
  TGI: 15.1 µM
OVCAR-3 ovarian
  GI50: 3.04 µM
  TGI: 14.2 µM
OVCAR-4 ovarian
  GI50: 1.13 µM
  TGI: 4.19 µM
OVCAR-5 ovarian
  GI50: 3.84 µM
  TGI: 14 µM
OVCAR-8 ovarian
  GI50: 3.82 µM
  TGI: 14.9 µM
PC-3 prostate
  GI50: 5.52 µM
  TGI: 24.4 µM
RPMI-8226 leukemia
  GI50: 1.56 µM
  TGI: 4.48 µM
RXF 393 renal
  GI50: 2.03 µM
  TGI: 10.7 µM
SF-268 CNS
  GI50: 3.49 µM
  TGI: 12.4 µM
SF-295 CNS
  GI50: 2.85 µM
  TGI: 9.55 µM
SF-539 CNS
  GI50: 1.14 µM
  TGI: 2.62 µM
SK-MEL-28 melanoma
  GI50: 2.39 µM
  TGI: 6.47 µM
SK-MEL-5 melanoma
  GI50: 2.27 µM
  TGI: 6.06 µM
SK-OV-3 ovarian
  GI50: 2.18 µM
  TGI: 13.1 µM
SN12C renal
  GI50: 5.15 µM
  TGI: 20 µM
SNB-19 CNS
  GI50: 4.56 µM
  TGI: 18.5 µM
SNB-75 CNS
  GI50: 9.27 µM
  TGI: > 100 µM
SR leukemia
  GI50: 0.385 µM
  TGI: 1.4 µM
SW-620 colon
  GI50: 1.71 µM
  TGI: 3.25 µM
T-47D breast
  GI50: 9.82 µM
  TGI: 22.2 µM
TK-10 renal
  GI50: 0.993 µM
  TGI: 7.61 µM
U251 glioblastoma
  GI50: 2.51 µM
  TGI: 12.1 µM
UACC-257 melanoma
  GI50: 1.73 µM
  TGI: 3.35 µM
UACC-62 melanoma
  GI50: 2.14 µM
  TGI: 9.84 µM
UO-31 renal
  GI50: 3.64 µM
  TGI: > 100 µM

— PubChem BioAssay (NCI)
